Active and inactive are the calls of the source. No cut-off for these calls is given here.
Key:
SK-MEL-5 [1] = assay: Growth inhibition of human SK-MEL-5 cells at 10 uM measured after 48 hrs by sulforhodamine B assay; type: functional, cell-based
MDA-MB-435 [2] = assay: Growth inhibition of human MDA-MB-435 cells measured after 48 hrs by sulforhodamine B assay; type: functional; conditions: for CC50: read-out: LC50 (the source's name)
COLO 205 [3] = assay: Growth inhibition of human COLO 205 cells at 10 uM measured after 48 hrs by sulforhodamine B assay; type: functional, cell-based
NCI-H522 [4] = assay: Growth inhibition of human NCI-H522 cells measured after 48 hrs by sulforhodamine B assay; type: functional; conditions: for CC50: read-out: LC50 (the source's name)
COLO 205 [5] = assay: Growth inhibition of human COLO 205 cells measured after 48 hrs by sulforhodamine B assay; type: functional; conditions: for CC50: read-out: LC50 (the source's name)
NCI-H522 [6] = assay: Growth inhibition of human NCI-H522 cells at 10 uM measured after 48 hrs by sulforhodamine B assay; type: functional, cell-based
MDA-MB-435 [7] = assay: Growth inhibition of human MDA-MB-435 cells at 10 uM measured after 48 hrs by sulforhodamine B assay; type: functional, cell-based
SK-MEL-5 [8] = assay: Growth inhibition of human SK-MEL-5 cells measured after 48 hrs by sulforhodamine B assay; type: functional; conditions: for CC50: read-out: LC50 (the source's name)
K562 [9] = assay: Growth inhibition of human K562 cells measured after 48 hrs by sulforhodamine B assay; type: functional; conditions: for CC50: read-out: LC50 (the source's name)
MCF7 [10] = assay: Growth inhibition of human MCF7 cells measured after 48 hrs by sulforhodamine B assay; type: functional
OVCAR-8 [11] = assay: Growth inhibition of human OVCAR-8 cells at 10 uM measured after 48 hrs by sulforhodamine B assay; type: functional, cell-based
UACC-62 [12] = assay: Growth inhibition of human UACC-62 cells at 10 uM measured after 48 hrs by sulforhodamine B assay; type: functional, cell-based
K562 [13] = assay: Growth inhibition of human K562 cells at 10 uM measured after 48 hrs by sulforhodamine B assay; type: functional, cell-based
UACC-62 [14] = assay: Growth inhibition of human UACC-62 cells measured after 48 hrs by sulforhodamine B assay; type: functional; conditions: for CC50: read-out: LC50 (the source's name)
OVCAR-8 [15] = assay: Growth inhibition of human OVCAR-8 cells measured after 48 hrs by sulforhodamine B assay; type: functional; conditions: for CC50: read-out: LC50 (the source's name)
MCF7 [16] = assay: Growth inhibition of human MCF7 cells at 10 uM measured after 48 hrs by sulforhodamine B assay; type: functional, cell-based
Sus scrofa [17] = species on record: Sus scrofa; assay: Inhibition of porcine brain tubulin polymerization assessed as microtubule destabilization at 10 uM measured at 60 secs interval for 60 mins in presence of GTP by fluorescence assay
Sus scrofa [18] = species on record: Sus scrofa; assay: Inhibition of porcine brain tubulin polymerization assessed as microtubule destabilization by measuring relative fluorescence unit at 10 uM measured at 60 secs interval for 60 mins in presence of GTP by fluorescence assay

SMILES | growth inhibition (GI) (SK-MEL-5 [1]) | growth inhibition (GI) (COLO 205 [3]) | growth inhibition (GI) (NCI-H522 [6]) | growth inhibition (GI) (MDA-MB-435 [7]) | GI50 (MDA-MB-435 [2]) | CC50 (MDA-MB-435 [2]) | GI50 (NCI-H522 [4]) | CC50 (NCI-H522 [4]) | GI50 (COLO 205 [5]) | CC50 (COLO 205 [5]) | GI50 (SK-MEL-5 [8]) | CC50 (SK-MEL-5 [8]) | inhibition (Sus scrofa [17]) | also measured
O=C(N/N=C/c1ccc(-c2ccc(O)cc2)s1)c1[nH]c2ccc(Br)cc2c1-c1ccccc1 | Active | Active | Active | Active | – | – | – | – | – | – | – | – | – | growth inhibition (GI) (MDA-MB-435 [2]): Active; growth inhibition (GI) (NCI-H522 [4]): Active; growth inhibition (GI) (COLO 205 [5]): Active; growth inhibition (GI) (SK-MEL-5 [8]): Active
N#Cc1ccc(/C=N/NC(=O)c2[nH]c3ccc(Br)cc3c2-c2ccccc2)o1 | Active | Active | Active | Active | 186 nM | > 100000 nM | 82.6 nM | > 100000 nM | 198 nM | 692 nM | 231 nM | > 100000 nM | inactive | GI50 (K562 [9]): 69 nM; CC50 (K562 [9]): > 100000 nM; GI50 (MCF7 [10]): 324 nM; LC50 (MCF7 [10]): > 100000 nM; growth inhibition (GI) (OVCAR-8 [11]): Active; growth inhibition (GI) (UACC-62 [12]): Active; growth inhibition (GI) (K562 [13]): Active; GI50 (UACC-62 [14]): 462 nM; CC50 (UACC-62 [14]): > 100000 nM; GI50 (OVCAR-8 [15]): 209 nM; CC50 (OVCAR-8 [15]): > 100000 nM; growth inhibition (GI) (MCF7 [16]): Active
O=C(N/N=C/c1ccco1)c1[nH]c2ccc(Br)cc2c1-c1ccccc1 | Active | Active | Active | Active | 34 nM | > 100000 nM | 23.9 nM | > 100000 nM | 113 nM | > 100000 nM | 88.7 nM | > 100000 nM | – | RFU (Sus scrofa [18]): 50 a.u.; GI50 (K562 [9]): 40.7 nM; CC50 (K562 [9]): > 100000 nM; GI50 (MCF7 [10]): 41.4 nM; LC50 (MCF7 [10]): > 100000 nM; growth inhibition (GI) (OVCAR-8 [11]): Active; growth inhibition (GI) (UACC-62 [12]): Active; growth inhibition (GI) (K562 [13]): Active; GI50 (UACC-62 [14]): 39.4 nM; CC50 (UACC-62 [14]): > 100000 nM; GI50 (OVCAR-8 [15]): 121 nM; CC50 (OVCAR-8 [15]): > 100000 nM; growth inhibition (GI) (MCF7 [16]): Active
N#Cc1ccc(/C=N/NC(=O)c2[nH]c3ccc(Br)cc3c2-c2ccccc2)s1 | Active | Active | Active | Active | 36 nM | > 100000 nM | 23 nM | > 100000 nM | 195 nM | > 100000 nM | 124 nM | 4610 nM | inactive | –
O=C(N/N=C/c1ccc(-c2cccc([N+](=O)[O-])c2)o1)c1[nH]c2ccc(Br)cc2c1-c1ccccc1 | – | – | Active | – | – | – | – | 9130 nM | – | – | – | – | – | –
O=C(O)c1ccc(-c2ccc(/C=N/NC(=O)c3[nH]c4ccc(Br)cc4c3-c3ccccc3)s2)cc1 | Active | Active | Active | Active | – | – | – | – | – | – | – | – | – | growth inhibition (GI) (MDA-MB-435 [2]): Active; growth inhibition (GI) (NCI-H522 [4]): Active; growth inhibition (GI) (COLO 205 [5]): Active; growth inhibition (GI) (SK-MEL-5 [8]): Active
O=C(N/N=C/c1ccc([N+](=O)[O-])s1)c1[nH]c2ccc(Br)cc2c1-c1ccccc1 | Active | Active | Active | Active | 181 nM | 861 nM | 47.3 nM | > 100000 nM | 203 nM | 795 nM | 214 nM | 1870 nM | inactive | –

From ChEMBL document CHEMBL5576112, “Synthesis, in silico, in vitro evaluation of furanyl- and thiophenyl-3-phenyl-1H-indole-2-carbohydrazide derivatives as tubulin inhibitors and anticancer agents” (RSC Med Chem, 2024)
